Experimental data taken from the NIST ThermoML archive (doi:10.1021/je050050p).

Experiment: xn = mol fraction of the nth substance listed
Details: Liquid, Vibrating tube method

CN(C)C=O [dimethylformamide] + O=C=O
Details	mass density [kg/m3]
313.13 K, 8014 kPa, x2 = 0.6235	949.79
313.13 K, 9041 kPa, x2 = 0.6235	952.04
313.13 K, 10057 kPa, x2 = 0.6235	954.25
313.13 K, 10998 kPa, x2 = 0.6235	956.28
313.13 K, 11991 kPa, x2 = 0.6235	958.34
313.13 K, 12985 kPa, x2 = 0.6235	960.34
313.13 K, 14000 kPa, x2 = 0.6235	962.36
313.13 K, 14996 kPa, x2 = 0.6235	964.28
313.13 K, 16016 kPa, x2 = 0.6235	966.23
313.13 K, 16993 kPa, x2 = 0.6235	968.02
313.13 K, 18006 kPa, x2 = 0.6235	969.86
313.13 K, 18988 kPa, x2 = 0.6235	971.7
313.13 K, 20033 kPa, x2 = 0.6235	973.47
313.13 K, 21061 kPa, x2 = 0.6235	975.25
313.13 K, 22021 kPa, x2 = 0.6235	976.88
313.13 K, 22996 kPa, x2 = 0.6235	978.52
313.13 K, 24001 kPa, x2 = 0.6235	980.14
313.13 K, 25034 kPa, x2 = 0.6235	981.79
313.14 K, 9015 kPa, x2 = 0.8091	920.03
313.14 K, 9992 kPa, x2 = 0.8091	923.92
313.14 K, 10006 kPa, x2 = 0.9311	835.47
313.14 K, 11003 kPa, x2 = 0.8091	927.79
313.14 K, 11013 kPa, x2 = 0.9311	846.13
313.14 K, 12022 kPa, x2 = 0.8091	931.54
313.14 K, 12041 kPa, x2 = 0.9311	855.75
313.14 K, 13011 kPa, x2 = 0.8091	934.99
313.14 K, 13017 kPa, x2 = 0.9311	864.01
313.14 K, 14003 kPa, x2 = 0.8091	938.37
313.14 K, 14036 kPa, x2 = 0.9311	871.87
313.14 K, 15006 kPa, x2 = 0.8091	941.63
313.14 K, 15031 kPa, x2 = 0.9311	878.95
313.14 K, 16000 kPa, x2 = 0.8091	944.75
313.14 K, 16006 kPa, x2 = 0.9311	885.43
313.14 K, 16988 kPa, x2 = 0.8091	947.8
313.14 K, 17030 kPa, x2 = 0.9311	891.82
313.14 K, 17988 kPa, x2 = 0.9311	897.48
313.14 K, 18019 kPa, x2 = 0.8091	950.82
313.14 K, 18996 kPa, x2 = 0.8091	953.63
313.14 K, 19037 kPa, x2 = 0.9311	903.28
313.14 K, 20022 kPa, x2 = 0.9311	908.47
313.14 K, 20032 kPa, x2 = 0.8091	956.51
313.14 K, 21000 kPa, x2 = 0.9311	913.41
313.14 K, 21035 kPa, x2 = 0.8091	959.25
313.14 K, 21995 kPa, x2 = 0.8091	961.81
313.14 K, 22002 kPa, x2 = 0.9311	918.23
313.14 K, 23016 kPa, x2 = 0.9311	922.92
313.14 K, 23033 kPa, x2 = 0.8091	964.52
313.14 K, 24006 kPa, x2 = 0.9311	927.35
313.14 K, 24015 kPa, x2 = 0.8091	966.98
313.14 K, 25006 kPa, x2 = 0.8091	969.42
313.14 K, 25020 kPa, x2 = 0.9311	931.7
313.15 K, 4032 kPa, x2 = 0.2876	948.43
313.15 K, 5041 kPa, x2 = 0.2876	949.39
313.15 K, 6004 kPa, x2 = 0.2876	950.24
313.15 K, 6005 kPa, x2 = 0.4268	955.61
313.15 K, 6022 kPa, x2 = 0.4461	956.18
313.15 K, 6967 kPa, x2 = 0.2876	951.12
313.15 K, 6991 kPa, x2 = 0.4461	957.31
313.15 K, 7013 kPa, x2 = 0.4268	956.75
313.15 K, 8002 kPa, x2 = 0.2876	952.05
313.15 K, 8008 kPa, x2 = 0.4268	957.9
313.15 K, 8024 kPa, x2 = 0.4461	958.53
313.15 K, 9005 kPa, x2 = 0.2876	952.94
313.15 K, 9006 kPa, x2 = 0.4461	959.66
313.15 K, 9014 kPa, x2 = 0.4268	958.99
313.15 K, 9998 kPa, x2 = 0.4461	960.8
313.15 K, 10000 kPa, x2 = 0.2876	953.81
313.15 K, 10006 kPa, x2 = 0.4268	960.05
313.15 K, 10989 kPa, x2 = 0.4461	961.9
313.15 K, 11017 kPa, x2 = 0.2876	954.68
313.15 K, 11017 kPa, x2 = 0.4268	961.14
313.15 K, 12006 kPa, x2 = 0.4268	962.22
313.15 K, 12024 kPa, x2 = 0.2876	955.56
313.15 K, 12025 kPa, x2 = 0.4461	963.02
313.15 K, 13003 kPa, x2 = 0.4461	964.12
313.15 K, 13004 kPa, x2 = 0.4268	963.25
313.15 K, 13007 kPa, x2 = 0.2876	956.41
313.15 K, 13997 kPa, x2 = 0.4268	964.28
313.15 K, 13999 kPa, x2 = 0.4461	965.2
313.15 K, 14004 kPa, x2 = 0.2876	957.26
313.15 K, 14993 kPa, x2 = 0.4461	966.26
313.15 K, 15003 kPa, x2 = 0.4268	965.36
313.15 K, 15006 kPa, x2 = 0.2876	958.1
313.15 K, 15999 kPa, x2 = 0.2876	958.91
313.15 K, 16006 kPa, x2 = 0.4461	967.34
313.15 K, 16007 kPa, x2 = 0.4268	966.35
313.15 K, 17000 kPa, x2 = 0.4268	967.35
313.15 K, 17005 kPa, x2 = 0.2876	959.75
313.15 K, 17007 kPa, x2 = 0.4461	968.38
313.15 K, 17985 kPa, x2 = 0.4461	969.42
313.15 K, 17994 kPa, x2 = 0.4268	968.36
313.15 K, 18009 kPa, x2 = 0.2876	960.57
313.15 K, 19015 kPa, x2 = 0.4461	970.46
313.15 K, 19017 kPa, x2 = 0.4268	969.38
313.15 K, 19021 kPa, x2 = 0.2876	961.39
313.15 K, 19994 kPa, x2 = 0.4268	970.35
313.15 K, 20001 kPa, x2 = 0.2876	962.21
313.15 K, 20007 kPa, x2 = 0.4461	971.48
313.15 K, 20983 kPa, x2 = 0.4268	971.33
313.15 K, 20996 kPa, x2 = 0.4461	972.47
313.15 K, 21004 kPa, x2 = 0.2876	963
313.15 K, 22022 kPa, x2 = 0.2876	963.82
313.15 K, 22022 kPa, x2 = 0.4461	973.5
313.15 K, 22024 kPa, x2 = 0.4268	972.32
313.15 K, 22993 kPa, x2 = 0.4461	974.47
313.15 K, 23016 kPa, x2 = 0.2876	964.58
313.15 K, 23020 kPa, x2 = 0.4268	973.26
313.15 K, 23989 kPa, x2 = 0.2876	965.35
313.15 K, 23996 kPa, x2 = 0.4461	975.45
313.15 K, 24016 kPa, x2 = 0.4268	974.2
313.15 K, 24992 kPa, x2 = 0.4461	976.41
313.15 K, 24996 kPa, x2 = 0.4268	975.14
313.15 K, 25004 kPa, x2 = 0.2876	966.15
313.16 K, 5026 kPa, x2 = 0.4502	955.28
313.16 K, 5988 kPa, x2 = 0.4502	956.32
313.16 K, 6028 kPa, x2 = 0.4068	955.07
313.16 K, 7004 kPa, x2 = 0.4502	957.42
313.16 K, 7010 kPa, x2 = 0.4068	956.12
313.16 K, 7999 kPa, x2 = 0.4502	958.57
313.16 K, 8028 kPa, x2 = 0.4068	957.19
313.16 K, 9005 kPa, x2 = 0.4068	958.24
313.16 K, 9031 kPa, x2 = 0.4502	959.69
313.16 K, 10012 kPa, x2 = 0.4502	960.79
313.16 K, 10041 kPa, x2 = 0.4068	959.33
313.16 K, 10994 kPa, x2 = 0.4068	960.3
313.16 K, 11036 kPa, x2 = 0.4502	961.92
313.16 K, 11990 kPa, x2 = 0.4068	961.32
313.16 K, 12022 kPa, x2 = 0.4502	963.01
313.16 K, 12989 kPa, x2 = 0.4068	962.33
313.16 K, 13014 kPa, x2 = 0.4502	964.13
313.16 K, 14015 kPa, x2 = 0.4502	965.19
313.16 K, 14027 kPa, x2 = 0.4068	963.34
313.16 K, 14992 kPa, x2 = 0.4068	964.31
313.16 K, 15005 kPa, x2 = 0.4502	966.24
313.16 K, 15994 kPa, x2 = 0.4068	965.3
313.16 K, 16019 kPa, x2 = 0.4502	967.32
313.16 K, 16994 kPa, x2 = 0.4068	966.27
313.16 K, 17003 kPa, x2 = 0.4502	968.34
313.16 K, 17999 kPa, x2 = 0.4502	969.4
313.16 K, 18006 kPa, x2 = 0.4068	967.25
313.16 K, 18978 kPa, x2 = 0.4068	968.19
313.16 K, 19033 kPa, x2 = 0.4502	970.43
313.16 K, 19978 kPa, x2 = 0.4502	971.41
313.16 K, 20043 kPa, x2 = 0.4068	969.19
313.16 K, 21007 kPa, x2 = 0.4502	972.47
313.16 K, 21020 kPa, x2 = 0.4068	970.1
313.16 K, 22002 kPa, x2 = 0.4068	970.98
313.16 K, 22023 kPa, x2 = 0.4502	973.48
313.16 K, 23040 kPa, x2 = 0.4502	974.49
313.16 K, 23059 kPa, x2 = 0.4068	971.98
313.16 K, 24007 kPa, x2 = 0.4502	975.45
313.16 K, 24032 kPa, x2 = 0.4068	972.87
313.16 K, 24995 kPa, x2 = 0.4502	976.42
313.16 K, 25024 kPa, x2 = 0.4068	973.76
323.07 K, 9001 kPa, x2 = 0.6235	928.72
323.07 K, 10031 kPa, x2 = 0.6235	931.44
323.07 K, 11013 kPa, x2 = 0.6235	933.93
323.07 K, 12042 kPa, x2 = 0.6235	936.47
323.07 K, 13033 kPa, x2 = 0.6235	938.86
323.07 K, 13992 kPa, x2 = 0.6235	941.1
323.07 K, 14972 kPa, x2 = 0.6235	943.31
323.07 K, 15993 kPa, x2 = 0.6235	945.57
323.07 K, 16998 kPa, x2 = 0.6235	947.71
323.07 K, 18015 kPa, x2 = 0.6235	949.84
323.07 K, 18988 kPa, x2 = 0.6235	951.84
323.07 K, 20012 kPa, x2 = 0.6235	953.89
